Results: patent US6720346B2, “Thiazole benzamide derivatives and pharmaceutical compositions for inhibiting cell proliferation” (Agouron Pharmaceuticals, Inc., priority 2001, dated 2004)
Counter-ions that a name gives are not always drawn.

Columns and labels:
[1] = target: T1, CDK2/cyclin A (Homo sapiens, UniProt P24941); test: Inhibition of CDK2/cyclin A retinoblastoma kinase activity (Ki; % inhibition); format: biochemical; details: for Ki: apparent Ki, CDK2/cyclin A, Rb substrate
T1 construct: made in house; host or cells: CDK2: insect cells (baculovirus); cyclin A: E. coli
Protocol: (§1) Cyclin-dependent kinase activity was measured by quantifying the enzyme-catalyzed, time-dependent incorporation of radioactive phosphate from [^32P]ATP or [^33P]ATP into a protein substrate. Unless noted otherwise, assays were performed in 96-well plates in a total volume of 50 μL, in the presence of 10 mM HEPES (N-[2-hydroxyethyl]piperazine-N′-[2-ethanesulfonic acid]) (pH 7.4), 10 mM MgCl2, 25 μM adenosine triphosphate (ATP), 1 mg/mL ovalbumin, 5 μg/mL leupeptin, 1 mM dithiothreitol, 10 mM β-glycerophosphate, 0.1 mM sodium vanadate, 1 mM sodium fluoride, 2.5 mM ethylene glycol-bis(β-aminoethyl ether)-N,N,N′N′-tetraacetic acid (EGTA), 2% (v/v) dimethylsulfoxide, and 0.03-0.4 μCi [^32/33P]ATP per reaction. Reactions were initiated with enzyme, incubated at 30° C., and terminated after 20 minutes by the addition of ethylenediaminetetraacetic acid (EDTA) to 250 mM. The phosphorylated substrate was then captured on a nitrocellulose or phosphocellulose membrane using a 96-well filtration manifold, and unincorporated radioactivity was removed by repeated washing with 0.85% phosphoric acid. Radioactivity was quantified by exposing the dried membranes to a phosphorimager.
(§2) Compounds from combinatorial libraries were screened from 96-well plates for % inhibition of CDK activity at 30 nM theoretical compound concentration. Inhibition was measured relative to control wells that contained all reaction components including 2% (v/v) DMSO but no compound, after subtraction of background radioactivity measured in the absence of enzyme. Apparent Ki values of discrete compounds were measured by assaying enzyme activity in the presence of different inhibitor compound concentrations and subtracting the background radioactivity measured in the absence of enzyme. The kinetic parameters (kcat, Km for ATP) were measured for each enzyme under the usual assay conditions by determining the dependence of initial rates on ATP concentration. Inhibition data were fit to an equation for competitive inhibition using Kaleidagraph (Synergy Software), or were fit to an equation for competitive tight-binding inhibition using the software KineTic (BioKin, Ltd.).
CDK2 was purified using published methodology (Rosenblatt et al., “Purification and Crystallization of Human Cyclin-dependent Kinase 2,” J. Mol. Biol., 230, 1993, pp. 1317-1319) from insect cells that had been infected with a baculovirus expression vector. […] A complex of CDK2 and proteolyzed cyclin A was prepared and purified by gel filtration. The substrate for this assay was the same Rb substrate fragment used for the CDK4 assays, and the methodology of the CDK2/delta cyclin A and the CDK4/delta cyclin D3 assays was essentially the same, except that CDK2 was present at 10 nM or 19 nM. The duration of the assay was 60 or 75 minutes, during which the time-dependence of product formation was linear and initial rate conditions were met.

[2] = target: T2, human CDK4/cyclin D3 (Homo sapiens, UniProt P11802); test: Inhibition of CDK4/cyclin D retinoblastoma kinase activity (Ki; % inhibition); format: biochemical; details: for Ki: apparent Ki, CDK4/cyclin D3, Rb substrate
T2 construct: made in house; host or cells: insect cells co-infected with baculovirus vectors
T2 sequence (P11802 whole entry): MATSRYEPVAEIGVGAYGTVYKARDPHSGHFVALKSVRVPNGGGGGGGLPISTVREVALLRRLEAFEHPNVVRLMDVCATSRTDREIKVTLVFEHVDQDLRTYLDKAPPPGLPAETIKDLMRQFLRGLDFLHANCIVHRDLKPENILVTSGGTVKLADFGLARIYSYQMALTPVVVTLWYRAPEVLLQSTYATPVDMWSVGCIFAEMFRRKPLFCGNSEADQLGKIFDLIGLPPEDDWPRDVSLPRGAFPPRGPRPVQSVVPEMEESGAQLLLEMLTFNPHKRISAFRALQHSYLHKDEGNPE
T2 sequence (P30281 1-264 partner limits assumed): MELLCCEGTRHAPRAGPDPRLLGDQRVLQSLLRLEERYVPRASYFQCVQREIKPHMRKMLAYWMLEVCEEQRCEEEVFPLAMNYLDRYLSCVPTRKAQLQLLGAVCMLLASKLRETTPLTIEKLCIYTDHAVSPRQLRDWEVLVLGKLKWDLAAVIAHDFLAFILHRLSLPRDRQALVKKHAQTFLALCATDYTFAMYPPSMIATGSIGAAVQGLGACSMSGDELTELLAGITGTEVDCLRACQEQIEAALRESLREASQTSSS
Protocol: as §1, §2
A complex of human CDK4 and genetically truncated (1-264) cyclin D3 was purified using traditional biochemical chromatographic techniques from insect cells that had been co-infected with the corresponding baculovirus expression vectors (see e.g., Meijer and Kim, “Chemical Inhibitors of Cyclin-Dependent Kinases,” Methods in Enzymol., 283 (1997), pp. 113-128.). The enzyme complex (5 nM) was assayed with 0.3-0.5 μg of purified recombinant retinoblastoma protein fragment (Rb) as a substrate. The engineered Rb fragment (residues 386-928 of the native retinoblastoma protein; 62.3 kDa) contains the majority of the phosphorylation sites found in the native 106-kDa protein, as well as a tag of six histidine residues for ease of purification. Phosphorylated Rb substrate was captured by microfiltration on a nitrocellulose membrane and quantified using a phosphorimager as described above. For measurement of tight-binding inhibitors, the assay duration was extended to 60 minutes, during which the time-dependence of product formation was linear and initial rate conditions were met.

[3] = tested on: HCT-116 cell line; test: Inhibition of cell growth, MTT tetrazolium salt assay; format: cell-based; details: for IC50: Homo sapiens, HCT-116, 120 h, MTT, three to five days
Protocol: Inhibition of cell growth was measured using the tetrazolium salt assay, which is based on the ability of viable cells to reduce 3-(4,5-dimethylthiazol-2-yl)-2,5-[2H]-diphenyltetrazolium bromide (MTT) to formazan (Mossman, Journal of Immunological Methods, 65, (1983), pp. 55-58). The water-insoluble purple formazan product was then detected spectrophotometrically. The HCT-116 cell line was used as a representative cancer cell line and grown in 96-well plates. Cells were plated in McCoy's 5A Medium at a volume of 135 μl/well. Plates were incubated for four hours before addition of inhibitor compounds. Different concentrations of inhibitor compounds were added in 0.5% (v/v) dimethylsulfoxide (15 μL/well), and cells were incubated at 37° C. (5% CO2) for three to five days. At the end of the incubation, MTT was added to a final concentration of 0.2 mg/mL, and cells were incubated for 4 hours more at 37° C. After centrifugation of the plates and removal of medium, the absorbance of the formazan (solubilized in dimethylsulfoxide) was measured at 540 nm. The concentration of inhibitor compound causing 50% (IC50) or 90% ([…]) inhibition of growth was determined from the linear portion of a semi-log plot of inhibitor concentration versus percent inhibition. All results were compared to control cells treated only with 0.5% (v/v) dimethylsulfoxide.

[4] = HCT-116 cells, 0.25 μM compound

Structure (SMILES) | CDK2 % Inhibition at 0.03 μM ([1]; at 0.03 μM) | CDK4 % Inhibition at 0.03 μM ([2]; at 0.03 μM) | HCT-116 % Inhibition at 0.25 μM ([3]; HCT-116, at 0.25 μM) | Ki [1] | Ki [2] | IC50 [3] | also measured
Nc1nc(Nc2ccc(C(=O)NCCCN3CCCC3)cc2)sc1C(=O)c1c(F)cccc1F [Example G158] | 22% | 40% | 73% | – | – | – | HCT-116 % Inhibition at 0.1 μM ([3]; HCT-116, at 0.1 μM): 0%
CCCC(C)NC(=O)c1ccc(Nc2nc(N)c(C(=O)c3c(F)cccc3F)s2)cc1 (centres unmarked) [Example G163] | 16% | 21% | 67% | – | – | – | HCT-116 % Inhibition at 0.1 μM ([3]; HCT-116, at 0.1 μM): 0%
CCCCN(CCO)C(=O)c1ccc(Nc2nc(N)c(C(=O)c3c(F)cccc3F)s2)cc1 [Example G4] | −7% | 4% | 53% | – | – | – | –
CC(C)C(C)NC(=O)c1ccc(Nc2nc(N)c(C(=O)c3c(F)cccc3F)s2)cc1 (centres unmarked) [Example G89] | −20% | −4% | 59% | – | – | – | HCT-116 % Inhibition at 0.1 μM ([3]; HCT-116, at 0.1 μM): 30%
Nc1nc(Nc2ccc(C(=O)NC3Cc4ccccc4C3)cc2)sc1C(=O)c1c(F)cccc1F [Example A22, 4-[4-Amino-5-(2,6-difluoro-benzoyl)-thiazol-2-ylamino]-N-indan-2-yl-benzamide] | – | – | – | 6 nM | 5 nM | 170 nM | –
CC(C)NC(=O)c1ccc(Nc2nc(N)c(C(=O)c3c(F)cccc3F)s2)cc1 [Example G96] | −10% | 5% | 56% | – | – | – | HCT-116 % Inhibition at 0.1 μM ([3]; HCT-116, at 0.1 μM): 20%
C=CCN(CC=C)C(=O)c1ccc(Nc2nc(N)c(C(=O)c3c(F)cccc3F)s2)cc1 [Example G272] | – | – | – | – | – | – | CDK2 % Inhibition at 0.03 μM ([1]; 0.03 μM compound): −20%; CDK4 % Inhibition at 0.03 μM ([2]; 0.03 μM compound): 0%; HCT-116 % Inhibition at 0.1 μM ([3]; HCT-116 cells, 0.1 μM compound): 10%; HCT-116 % Inhibition at 0.25 μM [3, 4]: 47%
Nc1nc(Nc2ccc(C(=O)NCCn3ccnc3)cc2)sc1C(=O)c1c(F)cccc1F [Example A55, 4-[4-Amino-5-(2,6-difluoro-benzoyl)-thiazol-2-ylamino]-N-[2-(imidazol-1-yl)-ethyl]-benzamide Dihydrochloride Salt] | – | – | – | 56 nM | 17 nM | 3200 nM | –
CC(CN(C)C)NC(=O)c1ccc(Nc2nc(N)c(C(=O)c3c(F)cccc3F)s2)cc1O (centres unmarked) [Example D2, 4-[4-Amino-5-(2,6-difluoro-benzoyl)-thiazol-2-ylamino]-N-(2-dimethylamino-1RS-methyl-ethyl)-2-hydroxy-benzamide] | – | – | – | 51 nM | 25 nM | 580 nM | –
COC(CN(C)C(=O)c1ccc(Nc2nc(N)c(C(=O)c3c(F)cccc3F)s2)cc1)OC [Example G19] | −7% | 4% | 43% | – | – | – | –
CN(C)CCNC(=O)c1ccc(Nc2nc(N)c(C(=O)c3c(F)cccc3F)s2)cc1 [Example A4] | – | – | – | 230 nM | 16 nM | 190 nM | –
CN1CCC[C@H]1CNC(=O)c1ccc(Nc2nc(N)c(C(=O)c3ccccc3F)s2)cc1 [Example A67, 4-{4-Amino-5-(2-fluoro-benzoyl)-thiazol-2-ylamino}-N-(1-methyl-pyrrolidin-2S-ylmethyl)-benzamide Trifluoroacetic Acid Salt] | – | – | – | 13 nM | 88 nM | 77 nM | –
CC(=O)N1CCN(C(=O)c2ccc(Nc3nc(N)c(C(=O)c4c(F)cccc4F)s3)cc2)CC1 [Example G65] | 12% | 17% | 58% | – | – | – | –
Cc1cc(C)cc(NC(=O)c2ccc(Nc3nc(N)c(C(=O)c4c(F)cccc4F)s3)cc2)c1 [Example G297] | – | – | – | – | – | – | CDK2 % Inhibition at 0.03 μM ([1]; 0.03 μM compound): −3%; CDK4 % Inhibition at 0.03 μM ([2]; 0.03 μM compound): 8%; HCT-116 % Inhibition at 0.1 μM ([3]; HCT-116 cells, 0.1 μM compound): 0%; HCT-116 % Inhibition at 0.25 μM [3, 4]: 45%
CC(C)N(CCNC(=O)c1ccc(Nc2nc(N)c(C(=O)c3c(F)cccc3F)s2)cc1)C(C)C [Example A23, 4-[4-Amino-5-(2,6-difluoro-benzoyl)-thiazol-2-ylamino]-N-(2-diisopropylamino-ethyl)-benzamide] | – | – | – | 130 nM | 8 nM | 100 nM | –
Nc1nc(Nc2ccc(C(=O)NCCC3OCCO3)cc2)sc1C(=O)c1c(F)cccc1F [Example G342] | – | – | – | – | – | – | CDK2 % Inhibition at 0.03 μM ([1]; 0.03 μM compound): −10%; CDK4 % Inhibition at 0.03 μM ([2]; 0.03 μM compound): 13%; HCT-116 % Inhibition at 0.1 μM ([3]; HCT-116 cells, 0.1 μM compound): 20%; HCT-116 % Inhibition at 0.25 μM [3, 4]: 55%
CC1(C)CCC(CNC(=O)c2ccc(Nc3nc(N)c(C(=O)c4c(F)cccc4F)s3)cc2)N1 (centres unmarked) [Example A48, 4-[4-Amino-5-(2,6-difluoro-benzoyl)-thiazol-2-ylamino]-N-(5,5-dimethyl-pyrrolidin-2RS-yl-methyl)-benzamide Hydrochloride Salt] | – | – | – | 55 nM | 5 nM | 580 nM | –
COc1ccc(NC(=O)c2ccc(Nc3nc(N)c(C(=O)c4c(F)cccc4F)s3)cc2)cn1 [Example G215] | – | – | – | – | – | – | CDK2 % Inhibition at 0.03 μM ([1]; 0.03 μM compound): 18%; CDK4 % Inhibition at 0.03 μM ([2]; 0.03 μM compound): 27%; HCT-116 % Inhibition at 0.1 μM ([3]; HCT-116 cells, 0.1 μM compound): 22%; HCT-116 % Inhibition at 0.25 μM [3, 4]: 73%
Cc1ccc(CNC(=O)c2ccc(Nc3nc(N)c(C(=O)c4c(F)cccc4F)s3)cc2)cc1C [Example G338] | – | – | – | – | – | – | CDK2 % Inhibition at 0.03 μM ([1]; 0.03 μM compound): 31%; CDK4 % Inhibition at 0.03 μM ([2]; 0.03 μM compound): 27%; HCT-116 % Inhibition at 0.1 μM ([3]; HCT-116 cells, 0.1 μM compound): 18%; HCT-116 % Inhibition at 0.25 μM [3, 4]: 54%
Nc1nc(Nc2ccc(C(=O)N3CC=CC3)cc2)sc1C(=O)c1c(F)cccc1F [Example G40] | 4% | 18% | 61% | – | – | – | –
Nc1nc(Nc2ccc(C(=O)NC3CCN(Cc4ccccc4)C3)cc2)sc1C(=O)c1c(F)cccc1F (centres unmarked) [Example G381] | – | – | – | – | – | – | CDK2 % Inhibition at 0.03 μM ([1]; 0.03 μM compound, 0.03 µM): 5%; CDK4 % Inhibition at 0.03 μM ([2]; 0.03 μM compound, 0.03 µM): 38%; HCT-116 % Inhibition at 0.1 μM ([3]; HCT-116 cells, 0.1 μM compound, 0.1 µM): 43%; HCT-116 % Inhibition at 0.25 μM ([3]; HCT-116 cells, 0.25 μM compound, 0.25 µM): 88%
Nc1nc(Nc2ccc(C(=O)NCCc3cccc(F)c3)cc2)sc1C(=O)c1c(F)cccc1F [Example G349] | – | – | – | – | – | – | CDK2 % Inhibition at 0.03 μM ([1]; 0.03 μM compound): −6%; CDK4 % Inhibition at 0.03 μM ([2]; 0.03 μM compound): 11%; HCT-116 % Inhibition at 0.1 μM ([3]; HCT-116 cells, 0.1 μM compound): 31%; HCT-116 % Inhibition at 0.25 μM [3, 4]: 48%
Nc1nc(Nc2ccc(C(=O)Nc3ccc(-c4csnn4)cc3)cc2)sc1C(=O)c1c(F)cccc1F [Example G30] | 5% | 5% | 82% | – | – | – | –
